In patent US7101878B1 (Agouron Pharmaceuticals, Inc., priority 1998, dated 2006):

Columns and labels:
N-type Ca2+ Channel = N-type Ca2+ Channel (Homo sapiens, UniProt Q00975); test: Selectivity: N-type Ca2+ Channel
M2 Muscarinic = M2 Muscarinic (Homo sapiens, UniProt P08172); test: Selectivity: M2 Muscarinic
TXA2 = TXA2 (Homo sapiens, UniProt P21731); test: biochemical
LTD4 = LTD4 (Homo sapiens, UniProt Q9Y271); test: biochemical
rat mast cells = test: Selectivity: Basal Histamine Release (rat mast cells); conditions: Mast cell, read-out: Basal Histamine Release (rat mast cells) EC50
NK1 = NK1 (Homo sapiens, UniProt P25103); test: biochemical
Serotonin Transporter = Serotonin Transporter (Homo sapiens, UniProt P31645); test: Selectivity: Serotonin Transporter
H3 Histamine = H3 Histamine (Homo sapiens, UniProt Q9Y5N1); test: Selectivity: H3 Histamine
RARγ Retinoid = RARγ Retinoid (Homo sapiens, UniProt P13631); test: biochemical
[1] = biological target: Choline Acetyltransferase (Homo sapiens, UniProt P28329); test: biochemical
NK2 = NK2 (Homo sapiens, UniProt P21452); test: biochemical
[2] = Intact male rat, testosterone suppression; assay type: in vivo; conditions: male, Sprague-Dawley, rat, plasma, intramuscular; 100 mg/kg im*, 7 days; read-out: Range of Plasma Conc.
Source text: Testosterone is a hormone regulated by the hypothalamic-pituitary-gonadal axis. GnRH is secreted in pulses from the hypothalamus and stimulates the anterior pituitary gland to release gonadotropic hormones LH and FSH. Testosterone is produced when the testes are stimulated by LH. The quantity of testosterone secreted increases approximately in direct proportion to the amount of LH available (Guyton, 1986).
Male Sprague-Dawley (250-275 g) rats were single-housed and allowed to acclimate for 1 week prior to study. On study day animals were dosed with vehicle or test compound by various routes of administration, including ip, sc, or po. Blood samples were obtained via cardiac puncture under halothane anesthesia from individual animals at predetermined time points post treatment. Blood samples were drawn into heparin containing tubes. Blood was centrifuged immediately, plasma collected and stored in −20° freezer until assayed. Plasma samples were analyzed using DSL-4000 ACTIVE Testosterone coated-tube raduioimmunoassay kit from Diagnostic Systems Laboratories, Inc.
Male Sprague-Dawley (250-275 g) rats were single-housed and allowed to acclimate for 1 week prior to study. We developed a technique to allow for repeated sampling from the jugular vein by using microrenathane (MRE) catheters implanted 7 days prior to study. Details of the surgical procedure have been described previously {Harms and Ojeda, 1974}. On study day, animals were allowed to acclimate to the procedure room while residing in their home cage. Basal blood samples were drawn from all animals. Immediately following basal sampling, vehicle or test compounds were administered by various routes. The routes of administration employed were intravenous (iv), intramuscular (im), and oral (po). Blood samples were drawn into heparin containing tubes at multiple time points post treatment. Blood was centrifuged immediately, plasma collected and stored in −20° freezer until assayed. Plasma samples were analyzed using DSL-4000 ACTIVE Testosterone coated-tube raduioimmunoassay kit from Diagnostic Systems Laboratories, Inc.
Male Sprague-Dawley (250-275 g) rats were double-housed and allowed to acclimate for 1 week prior to study. Daily vehicle treatments were administered either, im, sc, or po between 8:00 and 9:00 am for seven days. On day 8 between 8:00 and 9:00 am, blood samples were drawn via cardiac puncture under halothane anesthesia. The procedure was complete in 45-60 seconds. Over the next 7 days one groups of animals continued to receive vehicle treatments while another group of animals received no treatment. Samples were collected as described above following the 7th day of this treatment regimen. Testosterone levels were not different between vehicle treated animals and untreated animals.
Daily im dosing of Compound 134 (100 mg/kg) or vehicle was performed between 8:00 and 9:00 am for seven days. Samples were collected as described above following the 7th day of treatment.
All blood samples were collected in heparin containing tubes. Blood was centrifuged immediately, plasma collected and stored in −20° freezer until assayed the next day. Plasma samples were analyzed using DSL-4000 ACTIVE Testosterone coated-tube raduioimmunoassay kit from Diagnostic Systems Laboratories, Inc.

rat GnRH receptor = biological target: T1, rat GnRH receptor (Rattus norvegicus, UniProt P30969); test: Total inositol phosphates measurement, GGH3 cells; assay type: cell-based; conditions: PI (inositol phosphates)
T1 sequence (P30969 1-327): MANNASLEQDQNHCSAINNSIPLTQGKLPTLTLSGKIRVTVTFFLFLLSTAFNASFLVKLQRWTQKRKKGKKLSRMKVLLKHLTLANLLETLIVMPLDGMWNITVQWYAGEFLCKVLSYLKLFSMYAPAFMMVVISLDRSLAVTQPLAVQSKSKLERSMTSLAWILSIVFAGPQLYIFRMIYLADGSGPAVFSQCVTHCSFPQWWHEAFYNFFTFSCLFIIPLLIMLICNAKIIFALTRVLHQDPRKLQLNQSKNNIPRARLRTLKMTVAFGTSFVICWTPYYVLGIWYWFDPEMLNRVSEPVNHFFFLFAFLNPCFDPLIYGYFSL
Protocol: In another test, accumulation of total inositol phosphates may be measured by formic acid extraction from cells, followed by separation of the phosphates on Dowex columns. Cells are split using trypsin into two 12-well plates and pre-labeled with ^3H-myoinositol ([…]-2 mCi per mL) for 16-18 hours in inositol-free medium. The medium is then aspirated and the cells rinsed with either 1×HBSS, 20 mM HEPES (pH 7.5), or serum-free DMEM, 1×HBSS, 20 mM HEPES (pH 7.5) containing agonist, and 20 mM LiCl is then added and the cells are incubated for the desired time. The medium is aspirated and the reaction stopped by addition of ice-cold 10 mM formic acid, which also serves to extract cellular lipids. […] The columns are then washed with 10 mL of […] sodium formate and 5 mM borax, and total inositol phosphates are eluted with 4.5 mL 1M ammonium formate, 0.1M formic acid.
These cells have been extensively characterized previously (Kaiser et al., 1997). These cells were grown in low glucose Dulbecco's modified Eagle's medium (DMEM) containing: 100U/mL penicillin/streptomycin, 0.6 g/L G418 and 10% beat-inactivated fetal bovine serum
This cell line was provided by Dr. Stuart Sealfon, Mount Sinai Medical School New York, N.Y. These cells were grown in DMEM supplemented with 0.2 g/L G418 100 U/ml penicillin/streptomycin and 10% FBS. […]

Chain of Serotonin Transporter (P31645 whole entry): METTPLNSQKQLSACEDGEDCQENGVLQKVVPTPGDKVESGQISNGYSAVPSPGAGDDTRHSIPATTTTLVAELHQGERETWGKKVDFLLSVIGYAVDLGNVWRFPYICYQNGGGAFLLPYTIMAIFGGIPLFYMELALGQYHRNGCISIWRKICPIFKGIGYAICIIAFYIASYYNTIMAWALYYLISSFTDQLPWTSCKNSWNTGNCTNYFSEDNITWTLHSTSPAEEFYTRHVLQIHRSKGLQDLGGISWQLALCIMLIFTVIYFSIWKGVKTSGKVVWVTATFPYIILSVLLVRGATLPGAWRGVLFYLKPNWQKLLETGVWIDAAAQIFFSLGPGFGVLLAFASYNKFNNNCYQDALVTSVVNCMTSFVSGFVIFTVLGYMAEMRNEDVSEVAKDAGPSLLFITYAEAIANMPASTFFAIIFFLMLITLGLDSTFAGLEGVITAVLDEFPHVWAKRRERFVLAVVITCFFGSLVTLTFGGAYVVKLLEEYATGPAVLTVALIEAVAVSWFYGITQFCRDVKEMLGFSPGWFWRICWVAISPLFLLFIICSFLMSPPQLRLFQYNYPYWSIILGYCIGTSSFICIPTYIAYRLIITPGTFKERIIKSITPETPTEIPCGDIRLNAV
Chain of NK2 (P21452 whole entry): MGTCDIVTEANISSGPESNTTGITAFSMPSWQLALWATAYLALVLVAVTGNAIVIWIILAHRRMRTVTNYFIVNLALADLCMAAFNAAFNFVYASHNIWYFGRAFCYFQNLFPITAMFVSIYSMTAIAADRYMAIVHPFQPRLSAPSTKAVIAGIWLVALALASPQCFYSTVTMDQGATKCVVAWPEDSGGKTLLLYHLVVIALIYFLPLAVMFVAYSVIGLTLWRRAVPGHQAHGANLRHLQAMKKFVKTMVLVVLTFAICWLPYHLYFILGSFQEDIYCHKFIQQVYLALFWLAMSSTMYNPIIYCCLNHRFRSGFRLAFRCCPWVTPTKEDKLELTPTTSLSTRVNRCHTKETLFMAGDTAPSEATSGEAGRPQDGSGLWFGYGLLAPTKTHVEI
Chain of NK1 (P25103 whole entry): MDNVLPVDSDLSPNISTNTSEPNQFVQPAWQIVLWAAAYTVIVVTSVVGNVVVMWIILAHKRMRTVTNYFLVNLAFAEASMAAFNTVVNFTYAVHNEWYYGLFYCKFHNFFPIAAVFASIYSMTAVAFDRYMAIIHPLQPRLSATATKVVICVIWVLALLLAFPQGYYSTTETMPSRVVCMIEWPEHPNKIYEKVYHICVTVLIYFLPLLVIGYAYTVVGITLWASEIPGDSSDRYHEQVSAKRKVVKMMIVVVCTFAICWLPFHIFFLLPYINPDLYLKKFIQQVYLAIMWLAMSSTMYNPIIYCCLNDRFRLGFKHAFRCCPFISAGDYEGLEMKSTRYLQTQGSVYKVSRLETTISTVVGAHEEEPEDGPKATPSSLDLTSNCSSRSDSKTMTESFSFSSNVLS
Chain of M2 Muscarinic (P08172 whole entry): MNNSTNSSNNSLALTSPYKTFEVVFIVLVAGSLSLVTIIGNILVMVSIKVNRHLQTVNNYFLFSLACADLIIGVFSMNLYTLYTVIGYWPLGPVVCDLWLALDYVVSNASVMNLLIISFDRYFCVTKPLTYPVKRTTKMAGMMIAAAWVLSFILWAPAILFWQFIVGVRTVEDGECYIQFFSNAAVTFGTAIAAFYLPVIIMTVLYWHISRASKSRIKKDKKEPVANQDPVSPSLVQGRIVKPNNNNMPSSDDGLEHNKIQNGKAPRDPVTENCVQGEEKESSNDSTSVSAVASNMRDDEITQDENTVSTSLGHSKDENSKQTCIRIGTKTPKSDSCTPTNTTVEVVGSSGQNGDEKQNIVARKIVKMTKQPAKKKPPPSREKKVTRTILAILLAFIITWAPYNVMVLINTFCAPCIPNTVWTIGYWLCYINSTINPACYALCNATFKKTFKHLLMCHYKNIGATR
Chain of LTD4 (Q9Y271 whole entry): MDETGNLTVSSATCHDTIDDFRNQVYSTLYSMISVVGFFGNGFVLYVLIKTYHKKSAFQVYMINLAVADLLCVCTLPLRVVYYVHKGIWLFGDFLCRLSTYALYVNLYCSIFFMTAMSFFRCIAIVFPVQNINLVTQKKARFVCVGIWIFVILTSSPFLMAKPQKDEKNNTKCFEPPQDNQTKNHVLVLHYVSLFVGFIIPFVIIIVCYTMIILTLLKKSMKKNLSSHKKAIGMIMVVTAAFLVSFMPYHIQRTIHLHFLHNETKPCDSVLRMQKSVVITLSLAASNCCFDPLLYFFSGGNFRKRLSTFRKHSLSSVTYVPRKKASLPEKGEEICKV
Chain of Choline Acetyltransferase (P28329 whole entry): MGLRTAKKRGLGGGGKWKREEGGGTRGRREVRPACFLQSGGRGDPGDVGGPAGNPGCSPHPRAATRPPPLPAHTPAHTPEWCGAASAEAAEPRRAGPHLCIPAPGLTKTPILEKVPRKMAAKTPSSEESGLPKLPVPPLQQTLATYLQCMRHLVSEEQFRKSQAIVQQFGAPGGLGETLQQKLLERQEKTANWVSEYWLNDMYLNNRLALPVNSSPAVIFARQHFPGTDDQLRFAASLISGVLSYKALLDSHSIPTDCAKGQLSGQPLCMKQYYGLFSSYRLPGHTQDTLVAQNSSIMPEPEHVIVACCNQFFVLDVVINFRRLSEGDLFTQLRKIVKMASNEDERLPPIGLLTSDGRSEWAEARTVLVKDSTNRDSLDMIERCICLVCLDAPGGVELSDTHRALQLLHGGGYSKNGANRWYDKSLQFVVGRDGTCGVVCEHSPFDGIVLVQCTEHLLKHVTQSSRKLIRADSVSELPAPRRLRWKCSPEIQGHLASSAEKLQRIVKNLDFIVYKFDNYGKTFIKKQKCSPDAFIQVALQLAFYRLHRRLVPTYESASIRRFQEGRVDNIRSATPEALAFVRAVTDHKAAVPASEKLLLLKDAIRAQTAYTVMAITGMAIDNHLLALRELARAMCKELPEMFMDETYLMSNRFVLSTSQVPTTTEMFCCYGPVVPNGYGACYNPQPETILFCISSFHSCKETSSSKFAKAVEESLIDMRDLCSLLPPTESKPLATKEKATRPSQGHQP
Chain of H3 Histamine (Q9Y5N1 whole entry): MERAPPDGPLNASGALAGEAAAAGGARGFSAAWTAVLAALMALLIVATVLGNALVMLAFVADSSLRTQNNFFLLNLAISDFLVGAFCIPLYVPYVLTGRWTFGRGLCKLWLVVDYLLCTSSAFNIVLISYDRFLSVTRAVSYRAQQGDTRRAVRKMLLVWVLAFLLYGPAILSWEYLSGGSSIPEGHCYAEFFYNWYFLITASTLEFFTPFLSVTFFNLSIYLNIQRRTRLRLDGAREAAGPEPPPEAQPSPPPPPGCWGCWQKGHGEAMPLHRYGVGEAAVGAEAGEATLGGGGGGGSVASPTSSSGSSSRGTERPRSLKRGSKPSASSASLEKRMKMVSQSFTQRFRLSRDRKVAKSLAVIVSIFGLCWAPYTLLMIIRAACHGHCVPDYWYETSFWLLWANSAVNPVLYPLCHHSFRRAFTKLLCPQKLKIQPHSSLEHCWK
Chain of RARγ Retinoid (P13631 whole entry): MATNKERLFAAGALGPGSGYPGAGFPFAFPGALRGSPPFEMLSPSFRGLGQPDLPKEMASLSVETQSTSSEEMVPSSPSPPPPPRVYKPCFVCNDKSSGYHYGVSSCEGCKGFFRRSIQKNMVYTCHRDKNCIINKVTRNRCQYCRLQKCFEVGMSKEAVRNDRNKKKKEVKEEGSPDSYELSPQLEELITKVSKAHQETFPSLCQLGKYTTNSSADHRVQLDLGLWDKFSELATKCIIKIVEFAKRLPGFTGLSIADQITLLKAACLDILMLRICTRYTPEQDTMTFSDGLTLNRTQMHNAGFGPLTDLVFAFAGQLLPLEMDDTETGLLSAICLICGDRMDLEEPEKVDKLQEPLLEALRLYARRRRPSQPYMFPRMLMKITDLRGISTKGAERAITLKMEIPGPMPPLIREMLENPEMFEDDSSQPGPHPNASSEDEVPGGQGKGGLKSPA
Chain of TXA2 (P21731 whole entry): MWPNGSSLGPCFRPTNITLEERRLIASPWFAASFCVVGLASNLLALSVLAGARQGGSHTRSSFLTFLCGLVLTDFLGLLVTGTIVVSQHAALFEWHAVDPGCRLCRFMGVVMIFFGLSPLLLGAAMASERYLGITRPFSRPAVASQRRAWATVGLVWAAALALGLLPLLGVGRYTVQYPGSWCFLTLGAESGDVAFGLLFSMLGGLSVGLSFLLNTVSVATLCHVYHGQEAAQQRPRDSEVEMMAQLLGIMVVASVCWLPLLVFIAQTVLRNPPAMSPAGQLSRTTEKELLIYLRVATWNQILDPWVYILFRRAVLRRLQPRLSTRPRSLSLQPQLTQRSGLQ

For `COc1cccc(OC)c1NC(=O)c1ccc(Cc2cc3c(cc2C)C(C)(C)CCC3(C)C)o1` [Compound 20], the Ki (N-type Ca2+ Channel) was over 1000 nM, the Ki (M2 Muscarinic) was over 1000 nM and the Ki (TXA2) was over 1000 nM. For the same molecule, the Ki (LTD4) was over 1000 nM, the EC50 (rat mast cells) was over 10000 nM and the Ki (NK1) was over 1000 nM. For the same molecule, the Ki (Serotonin Transporter) was over 1000 nM, the Ki (H3 Histamine) was over 1000 nM and the Ki (RARγ Retinoid) was over 10000 nM. It also gave a Ki [1] of over 1000 nM and a Ki (NK2) of over 1000 nM.

With `COc1cc(OC)c(NC(=O)c2ccc(Cc3cc4c(cc3C)C(C)(C)CCC4(C)C)o2)c(OC)c1` [Compound 134] the concentration at 7 days [2] was 1300 nM.

With `Cc1cc2c(cc1Cc1ccc(C(=O)NCc3cccc(CNc4ccnc(NC[C@@H]5CCCO5)n4)c3)o1)C(C)(C)CCC2(C)C` [Compound 136] the Kb (rat GnRH receptor) was 6.3 nM.
